Test results as given in patent US9604933B2, “Pyrazolochalcones as potential anticancer agents” (COUNCIL OF SCIENTIFIC AND INDUSTRIAL RESEARCH, priority 2013, dated 2017).
Read-outs that look alike come from different tables or passages of the source.

Columns and labels:
T-47D = assay: NCI SRB cytotoxicity, breast T-47D; assay type: cell-based; conditions: Homo sapiens, T47D, 48 h exposure
Experimental: (§1) The pyrazolochalcones (7e, 8e, 10e, 11e, 12e, 13e and 8f) have been tested against fifty nine human tumor cell lines derived from nine cancer types (leukemia, non-small cell lung cancer, colon cancer, CNS cancer, melanoma, ovarian cancer, renal cancer, prostate cancer and breast cancer) as per the NCI protocol. For each compound, dose response curves for individual cell lines have been measured at a minimum of five concentrations at 10 fold dilutions. A protocol of 48 h continuous drug exposure has been used, and a sulforhodamine B (SRB) protein assay has been used to estimate cell viability or growth. The concentration for 50% cell growth inhibition (GI50), 50% cell death (LC50, 50% growth) and total cell growth inhibition (TGI, 0% growth) values were tabulated (Table-1). DMSO was used as control to calculate the values of GI50, LC50 and TGI. The compounds 7e, 8e, 10e, 11e, 12e, 13e and 8f has been evaluated for their in vitro cytotoxicity in […] cell lines from nine human cancer types of leukemia (K-562, SR), non-small cell lung (Hop-62, NCI-H226, NCI-H522), colon (HCT-116, HCT-15, HCC-2998), CNS (SF-539), melanoma (SK-MEL-5, UACC-62, M14), ovarian (IGROV1), renal (A498), prostate (PC3) and breast (BT-549, MDA-MB-435, HS578T) origin. The results are expressed as percent of cell growth determined relative to that of untreated control cells (Table 2).

Leukemia = assay: NCI SRB cytotoxicity, leukemia panel average; assay type: cell-based, human; conditions: average of cell lines
Experimental: as §1
(§2) Each cancer type represents the average of six to eight different cancer cell lines.

TK-10 = assay: NCI SRB cytotoxicity, renal TK-10; assay type: cell-based; conditions: Homo sapiens, 48 h exposure
Experimental: as §1

IGROV1 = assay: NCI SRB cytotoxicity, ovarian IGROV1; assay type: cell-based; conditions: Homo sapiens, IGROV-1, 48 h exposure
Experimental: as §1

SW-620 = assay: NCI SRB cytotoxicity, colon SW-620; assay type: cell-based; conditions: Homo sapiens, 48 h exposure
Experimental: as §1

RXF 393 = assay: NCI SRB cytotoxicity, renal RXF 393; assay type: cell-based; conditions: Homo sapiens, 48 h exposure
Experimental: as §1

CNS = assay: NCI SRB cytotoxicity, CNS panel average; assay type: cell-based, human; conditions: average of cell lines
Experimental: as §1, §2

OVCAR-5 = assay: NCI SRB cytotoxicity, ovarian OVCAR-5; assay type: cell-based; conditions: Homo sapiens, 48 h exposure
Experimental: as §1

RPMI-8226 = assay: NCI SRB cytotoxicity, leukemia RPMI-8226; assay type: cell-based; conditions: Homo sapiens, 48 h exposure
Experimental: as §1

Ovarian = assay: NCI SRB cytotoxicity, ovarian panel average; assay type: cell-based, human; conditions: average of cell lines
Experimental: as §1, §2

HCT-15 = assay: NCI SRB cytotoxicity, colon HCT-15; assay type: cell-based; conditions: Homo sapiens, 48 h exposure
Experimental: as §1

BT-549 = assay: NCI SRB cytotoxicity, breast BT-549; assay type: cell-based; conditions: Homo sapiens, 48 h exposure
Experimental: as §1

MCF7 = assay: NCI SRB cytotoxicity, breast MCF7; assay type: cell-based; conditions: Homo sapiens, 48 h exposure
Experimental: as §1

NCIH322M = assay: NCI SRB cytotoxicity, non-small cell lung NCIH322M; assay type: cell-based; conditions: Homo sapiens, NCI-H322M, 48 h exposure
Experimental: as §1

Renal = assay: NCI SRB cytotoxicity, renal panel average; assay type: cell-based, human; conditions: average of cell lines
Experimental: as §1, §2

ACHN = assay: NCI SRB cytotoxicity, renal ACHN; assay type: cell-based; conditions: Homo sapiens, 48 h exposure
Experimental: as §1

NCI-H23 = assay: NCI SRB cytotoxicity, non-small cell lung NCI-H23; assay type: cell-based; conditions: Homo sapiens, 48 h exposure
Experimental: as §1

MDA-MB-231/ATCC = assay: NCI SRB cytotoxicity, breast MDA-MB-231/ATCC; assay type: cell-based; conditions: Homo sapiens, 48 h exposure
Experimental: as §1

NCI/ADR-RES = assay: NCI SRB cytotoxicity, ovarian NCI/ADR-RES; assay type: cell-based; conditions: Homo sapiens, 48 h exposure
Experimental: as §1

Breast = assay: NCI SRB cytotoxicity, breast panel average; assay type: cell-based, human; conditions: average of cell lines
Experimental: as §1, §2

Colon = assay: NCI SRB cytotoxicity, colon panel average; assay type: cell-based, human; conditions: average of cell lines
Experimental: as §1, §2

HOP-62 = assay: NCI SRB cytotoxicity, non-small cell lung HOP-62; assay type: cell-based; conditions: Homo sapiens, 48 h exposure
Experimental: as §1

HL-60(TB) = assay: NCI SRB cytotoxicity, leukemia HL-60(TB); assay type: cell-based; conditions: Homo sapiens, 48 h exposure
Experimental: as §1

SK-MEL-5 = assay: NCI SRB cytotoxicity, melanoma SK-MEL-5; assay type: cell-based; conditions: Homo sapiens, 48 h exposure
Experimental: as §1

UO-31 = assay: NCI SRB cytotoxicity, renal UO-31; assay type: cell-based; conditions: Homo sapiens, 48 h exposure
Experimental: as §1

A498 = assay: NCI SRB cytotoxicity, renal A498; assay type: cell-based; conditions: Homo sapiens, 48 h exposure
Experimental: as §1

Prostate = assay: NCI SRB cytotoxicity, prostate panel average; assay type: cell-based, human; conditions: average of cell lines
Experimental: as §1, §2

human tumor cell lines = assay: NCI SRB cytotoxicity, all fifty nine human tumor cell lines; assay type: cell-based; parameters: Log10 TGI mean graph midpoint (MG_MID): unit not given here; conditions: for GI50: Homo sapiens
Experimental: as §1
The mean graph midpoint values of Log10 TGI and Log10 LC50 as well as Log10 GI50 for compounds 7e, 8e, 10e, 11e, 12e, 13e and 8f is listed in Table-3. […] The mean graph mid points of Log10 TGI and Log10, LC50 have shown similar pattern to the log10 GI50 mean graph mid points.

786-0 = assay: NCI SRB cytotoxicity, renal 786-0; assay type: cell-based; conditions: Homo sapiens, 48 h exposure
Experimental: as §1

A549/ATCC = assay: NCI SRB cytotoxicity, non-small cell lung A549/ATCC; assay type: cell-based; conditions: Homo sapiens, 48 h exposure
Experimental: as §1

NCI-H226 = assay: NCI SRB cytotoxicity, non-small cell lung NCI-H226; assay type: cell-based; conditions: Homo sapiens, 48 h exposure
Experimental: as §1

MOLT-4 = assay: NCI SRB cytotoxicity, leukemia MOLT-4; assay type: cell-based; conditions: Homo sapiens, 48 h exposure
Experimental: as §1

MDA-MB-435 = assay: NCI SRB cytotoxicity, breast panel MDA-MB-435; assay type: cell-based; conditions: Homo sapiens, 48 h exposure
Experimental: as §1

KM12 = assay: NCI SRB cytotoxicity, colon KM12; assay type: cell-based; conditions: Homo sapiens, 48 h exposure
Experimental: as §1

[1] = Homo sapiens, read-out: Log10 GI50 (concentration in mol/L causing 50% growth inhibition) (converted)
[2] = Homo sapiens, read-out: Log10 LC50 (concentration in mol/L causing 50% cell death) (converted)

Q: Which results are given for COc1cc(-c2cc(/C=C/C(=O)c3ccc(Cl)c(Cl)c3)[nH]n2)cc(OC)c1OC [12e, (E)-1-(3,4-dichlorophenyl)-3-(3-(3,4,5-trimethoxyphenyl)-1H-pyrazol-5-yl)prop-2-en-1-one]?
A: GI50 (T-47D): 1.66 µM; GI50 (Leukemia; [1]): 2.09 µM; CC50 (Leukemia; [2]): 0.0001 mol/L; Log10 TGI (concentration in mol/L causing total growth inhibition (0% growth)) (Leukemia): −4.61 mol/L; GI50 (TK-10): 8.34 µM; GI50 (IGROV1): 24 µM; GI50 (SW-620): 8.63 µM; GI50 (RXF 393): 2.7 µM; GI50 (CNS; [1]): 8.51 µM; LC50 (CNS; [2]): 87.1 µM; Log10 TGI (concentration in mol/L causing total growth inhibition (0% growth)) (CNS): −4.25 mol/L; GI50 (OVCAR-5): 20.5 µM; GI50 (RPMI-8226): 0.53 µM; GI50 (Ovarian; [1]): 10 µM; CC50 (Ovarian; [2]): 95.5 µM; Log10 TGI (concentration in mol/L causing total growth inhibition (0% growth)) (Ovarian): −4.27 mol/L; GI50 (HCT-15): 4.29 µM; GI50 (BT-549): 8.4 µM; GI50 (MCF7): 1.8 µM; GI50 (NCIH322M): 14.5 µM; GI50 (Renal; [1]): 8.91 µM; CC50 (Renal; [2]): 93.3 µM; Log10 TGI (concentration in mol/L causing total growth inhibition (0% growth)) (Renal): −4.22 mol/L; GI50 (ACHN): 21.4 µM; GI50 (NCI-H23): 23.4 µM; GI50 (MDA-MB-231/ATCC): 8.65 µM; GI50 (NCI/ADR-RES): 10.6 µM; GI50 (Breast; [1]): 4.47 µM; CC50 (Breast; [2]): 0.0001 mol/L; Log10 TGI (concentration in mol/L causing total growth inhibition (0% growth)) (Breast): −4.41 mol/L; GI50 (Colon; [1]): 4.79 µM; LC50 (Colon; [2]): 0.0001 mol/L; Log10 TGI (concentration in mol/L causing total growth inhibition) (Colon): −4.34 mol/L; GI50 (HOP-62): 1.72 µM; GI50 (HL-60(TB)): 7.18 µM; GI50 (SK-MEL-5): 13.4 µM; GI50 (UO-31): 5.73 µM; GI50 (A498): 5.89 µM; GI50 (Prostate; [1]): 5.89 µM; CC50 (Prostate; [2]): 0.0001 mol/L; Log10 TGI (concentration in mol/L causing total growth inhibition (0% growth)) (Prostate): −4.00 mol/L; GI50 (human tumor cell lines; across fifty nine cell lines in nine cell panels, read-out: GI50 value range): 0.18 to 29.2 µM; GI50 (human tumor cell lines; against human tumor cell lines, read-out: Log10 GI50 mean graph midpoint (MG_MID) (converted)): 6.61 µM; cytotoxicity (human tumor cell lines; against cancer cell lines, in words): significant cytotoxicity; Log10 TGI mean graph midpoint (MG_MID) (human tumor cell lines; against human tumor cell lines): −4.35; LC50 (human tumor cell lines; against human tumor cell lines, read-out: Log10 LC50 mean graph midpoint (MG_MID) (converted)): 89.1 µM; GI50 (786-0): 10.1 µM; GI50 (A549/ATCC): 18.7 µM; GI50 (NCI-H226): 18.6 µM; GI50 (MOLT-4): 4.38 µM; GI50 (MDA-MB-435): 1.98 µM; GI50 (KM12): 3.37 µM
